pEC50: −log10 of the molar value.
test system: HEK293T cells carrying the ATF4 luciferase reporter; assay: ATF4-Luc assay (in vitro model of VWMD); format: cell-based; conditions: Homo sapiens, HEK-293T; HEK293T cells with ATF4 5'-UTR firefly luciferase reporter; 1 μg/mL tunicamycin; 7 hours; One Glo luminescence
In short: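 Reporter cells were stably generated by retroviral transduction and puromycin selection, then seeded at 30,000 cells/well. Next day, cells received 1 μg/mL tunicamycin with 200 nM test compound for 7 h, and luciferase luminescence was read with a one-step reagent. Values reported as EC50.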

SMILES	pEC50
O=C(COc1ccc(Cl)c(F)c1)N[C@@H]1CC[C@@H](C(=O)NC2(c3ccc(Cl)cc3)CC2)OC1 [Compound 141, (2S,5R)-5-[2-(4-chloro-3-fluorophenoxy)acetamido]-N-[1-(4-chlorophenyl)cyclopropyl]oxane-2-carboxamide]	< 5.70
O=C(COc1ccc(Cl)c(F)c1)N[C@H]1CC[C@H](C(=O)N2CCN(c3ccc(Cl)cc3)C(=O)C2)CC1 [Compound 125, 2-(4-chloro-3-fluorophenoxy)-N-{(1r,4r)-4-[4-(4-chlorophenyl)-3-oxopiperazine-1-carbonyl]cyclohexyl}acetamide]	6.30 to 6.60
O=C(COc1ccc(Cl)c(Cl)c1)N[C@@H]1CC[C@@H](C(=O)NCc2ccc(C(F)(F)F)cn2)OC1 [Compound 174, (2S,5R)-5-[2-(3,4-dichlorophenoxy)acetamido]-N-{[5-(trifluoromethyl)pyridin-2-yl]methyl}oxane-2-carboxamide]	7.30 to 8.00
